Test results from PMC10046369, “Low-Affinity/High-Selectivity Dopamine Transport Inhibition Sufficient to Rescue Cognitive Functions in the Aging Rat” (Biomolecules, 2023).

How the values were obtained:
Assay in all cases: biochemical
Set-up in all cases: KINOMEscan competition binding panel, per cent of control
Conditions in all cases: read-out: %Ctrl @ 2800nM
ADCK4 = biological target: T1, ADCK4 (Homo sapiens, UniProt Q96D53)
T1 construct: gene COQ8B
Method in brief: (§1)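 Competition binding panel (KINOMEscan) across 450 human kinases and disease-relevant mutants, run to the contractor's standard protocol. Values are % control: (test signal − positive control signal)/(negative control signal − positive control signal) × 100, with lower values indicating stronger binding.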

BTK = BTK (Homo sapiens, UniProt Q06187)
Method in brief: as §1

CDC2L2 = biological target: T2, CDC2L2 (Homo sapiens, UniProt Q9UQ88)
T2 construct: gene CDK11A
Method in brief: as §1

CSNK1D = CSNK1D (Homo sapiens, UniProt P48730)
Method in brief: as §1

DYRK2 = DYRK2 (Homo sapiens, UniProt Q92630)
Method in brief: as §1

EPHA3 = EPHA3 (Homo sapiens, UniProt P29320)
Method in brief: as §1

ERBB3 = ERBB3 (Homo sapiens, UniProt P21860)
Method in brief: as §1

HPK1 = biological target: T3, HPK1 (Homo sapiens, UniProt Q92918)
T3 construct: gene MAP4K1
Method in brief: as §1

JNK1 = biological target: T4, JNK1 (Homo sapiens, UniProt P45983)
T4 construct: gene MAPK8
Method in brief: as §1

KIT(V559D,T670I) = KIT(V559D,T670I) (Homo sapiens, UniProt P10721, T670I/V559D)
Method in brief: as §1

LZK = biological target: T5, LZK (Homo sapiens, UniProt O43283)
T5 construct: gene MAP3K13
Method in brief: as §1

MEK3 = biological target: T6, MEK3 (Homo sapiens, UniProt P46734)
T6 construct: gene MAP2K3
Method in brief: as §1

MEK6 = biological target: T7, MEK6 (Homo sapiens, UniProt P52564)
T7 construct: gene MAP2K6
Method in brief: as §1

MELK = MELK (Homo sapiens, UniProt Q14680)
Method in brief: as §1

MERTK = MERTK (Homo sapiens, UniProt Q12866)
Method in brief: as §1

MKNK2 = MKNK2 (Homo sapiens, UniProt Q9HBH9)
Method in brief: as §1

MUSK = MUSK (Homo sapiens, UniProt O15146)
Method in brief: as §1

PIK3C2B = PIK3C2B (Homo sapiens, UniProt O00750)
Method in brief: as §1

PIK3CA(E542K) = PIK3CA(E542K) (Homo sapiens, UniProt P42336, E542K)
Method in brief: as §1

PIK3CA(M1043I) = PIK3CA(M1043I) (Homo sapiens, UniProt P42336, M1043I)
Method in brief: as §1

PIM2 = PIM2 (Homo sapiens, UniProt Q9P1W9)
Method in brief: as §1

PLK3 = PLK3 (Homo sapiens, UniProt Q9H4B4)
Method in brief: as §1

PRKCD = PRKCD (Homo sapiens, UniProt Q05655)
Method in brief: as §1

ROCK1 = ROCK1 (Homo sapiens, UniProt Q13464)
Method in brief: as §1

[1] = biological target: T8, RPS6KA4(Kin.Dom.1-N-terminal) (Homo sapiens, UniProt O75676)
T8 construct: Kin.Dom.1-N-terminal
Method in brief: as §1

TAOK3 = TAOK3 (Homo sapiens, UniProt Q9H2K8)
Method in brief: as §1

Chain of KIT(V559D,T670I) (P10721 whole entry V559D/T670I): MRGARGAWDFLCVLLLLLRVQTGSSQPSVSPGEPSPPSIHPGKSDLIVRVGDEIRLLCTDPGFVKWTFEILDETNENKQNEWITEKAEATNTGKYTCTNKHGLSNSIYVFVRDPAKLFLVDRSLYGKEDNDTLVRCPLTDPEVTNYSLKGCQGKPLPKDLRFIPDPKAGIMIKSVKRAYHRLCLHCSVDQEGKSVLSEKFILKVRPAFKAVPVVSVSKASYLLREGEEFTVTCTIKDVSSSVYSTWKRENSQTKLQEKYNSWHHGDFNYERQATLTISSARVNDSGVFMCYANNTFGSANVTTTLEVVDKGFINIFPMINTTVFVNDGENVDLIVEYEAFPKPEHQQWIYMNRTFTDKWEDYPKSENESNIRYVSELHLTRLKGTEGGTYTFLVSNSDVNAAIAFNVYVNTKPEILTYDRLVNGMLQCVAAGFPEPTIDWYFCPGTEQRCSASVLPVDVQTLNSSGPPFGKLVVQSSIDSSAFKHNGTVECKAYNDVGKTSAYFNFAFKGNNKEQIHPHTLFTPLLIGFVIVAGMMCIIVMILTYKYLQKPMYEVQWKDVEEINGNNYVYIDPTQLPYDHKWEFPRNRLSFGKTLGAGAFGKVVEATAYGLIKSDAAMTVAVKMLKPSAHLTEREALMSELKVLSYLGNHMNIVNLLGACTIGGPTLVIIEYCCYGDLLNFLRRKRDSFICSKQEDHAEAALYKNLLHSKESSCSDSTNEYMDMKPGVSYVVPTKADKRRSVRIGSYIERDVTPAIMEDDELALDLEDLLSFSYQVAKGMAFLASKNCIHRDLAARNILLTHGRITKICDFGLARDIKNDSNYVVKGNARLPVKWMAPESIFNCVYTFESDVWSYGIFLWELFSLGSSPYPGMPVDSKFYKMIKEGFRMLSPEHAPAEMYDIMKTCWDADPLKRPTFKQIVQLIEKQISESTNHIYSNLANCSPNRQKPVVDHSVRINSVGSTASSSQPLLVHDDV
Chain of ROCK1 (Q13464 whole entry): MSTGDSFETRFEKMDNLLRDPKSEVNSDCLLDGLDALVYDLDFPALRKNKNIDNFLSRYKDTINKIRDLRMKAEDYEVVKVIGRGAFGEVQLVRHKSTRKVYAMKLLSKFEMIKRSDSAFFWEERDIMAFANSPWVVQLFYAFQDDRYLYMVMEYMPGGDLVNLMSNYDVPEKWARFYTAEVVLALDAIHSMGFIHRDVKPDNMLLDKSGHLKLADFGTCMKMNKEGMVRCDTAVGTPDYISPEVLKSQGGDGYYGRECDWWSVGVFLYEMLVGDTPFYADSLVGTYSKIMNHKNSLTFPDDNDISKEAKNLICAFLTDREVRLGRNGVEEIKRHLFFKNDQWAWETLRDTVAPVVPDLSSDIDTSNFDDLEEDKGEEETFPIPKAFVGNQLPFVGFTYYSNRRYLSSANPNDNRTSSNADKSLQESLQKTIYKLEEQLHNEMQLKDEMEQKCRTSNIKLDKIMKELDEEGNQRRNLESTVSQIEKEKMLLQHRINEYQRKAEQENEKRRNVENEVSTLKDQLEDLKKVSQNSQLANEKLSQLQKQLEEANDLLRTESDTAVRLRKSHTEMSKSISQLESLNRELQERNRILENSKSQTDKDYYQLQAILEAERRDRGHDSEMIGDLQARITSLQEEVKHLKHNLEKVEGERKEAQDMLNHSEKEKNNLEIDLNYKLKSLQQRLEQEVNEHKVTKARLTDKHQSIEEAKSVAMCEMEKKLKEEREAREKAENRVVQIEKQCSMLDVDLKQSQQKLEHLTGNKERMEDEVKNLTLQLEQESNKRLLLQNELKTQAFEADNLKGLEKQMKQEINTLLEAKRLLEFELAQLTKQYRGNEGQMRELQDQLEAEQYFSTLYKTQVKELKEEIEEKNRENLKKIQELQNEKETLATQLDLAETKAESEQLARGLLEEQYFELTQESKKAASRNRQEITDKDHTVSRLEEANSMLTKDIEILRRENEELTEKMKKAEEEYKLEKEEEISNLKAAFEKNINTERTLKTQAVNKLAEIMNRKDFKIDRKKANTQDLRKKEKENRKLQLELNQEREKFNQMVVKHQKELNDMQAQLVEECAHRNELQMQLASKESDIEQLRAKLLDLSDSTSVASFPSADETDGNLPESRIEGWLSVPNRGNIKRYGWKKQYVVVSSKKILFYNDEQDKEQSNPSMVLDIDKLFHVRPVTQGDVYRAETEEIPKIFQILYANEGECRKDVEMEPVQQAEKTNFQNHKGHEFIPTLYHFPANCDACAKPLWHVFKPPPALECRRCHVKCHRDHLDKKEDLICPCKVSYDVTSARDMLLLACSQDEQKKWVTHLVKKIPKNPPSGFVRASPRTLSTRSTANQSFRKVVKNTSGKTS
Chain of PIK3C2B (O00750 whole entry): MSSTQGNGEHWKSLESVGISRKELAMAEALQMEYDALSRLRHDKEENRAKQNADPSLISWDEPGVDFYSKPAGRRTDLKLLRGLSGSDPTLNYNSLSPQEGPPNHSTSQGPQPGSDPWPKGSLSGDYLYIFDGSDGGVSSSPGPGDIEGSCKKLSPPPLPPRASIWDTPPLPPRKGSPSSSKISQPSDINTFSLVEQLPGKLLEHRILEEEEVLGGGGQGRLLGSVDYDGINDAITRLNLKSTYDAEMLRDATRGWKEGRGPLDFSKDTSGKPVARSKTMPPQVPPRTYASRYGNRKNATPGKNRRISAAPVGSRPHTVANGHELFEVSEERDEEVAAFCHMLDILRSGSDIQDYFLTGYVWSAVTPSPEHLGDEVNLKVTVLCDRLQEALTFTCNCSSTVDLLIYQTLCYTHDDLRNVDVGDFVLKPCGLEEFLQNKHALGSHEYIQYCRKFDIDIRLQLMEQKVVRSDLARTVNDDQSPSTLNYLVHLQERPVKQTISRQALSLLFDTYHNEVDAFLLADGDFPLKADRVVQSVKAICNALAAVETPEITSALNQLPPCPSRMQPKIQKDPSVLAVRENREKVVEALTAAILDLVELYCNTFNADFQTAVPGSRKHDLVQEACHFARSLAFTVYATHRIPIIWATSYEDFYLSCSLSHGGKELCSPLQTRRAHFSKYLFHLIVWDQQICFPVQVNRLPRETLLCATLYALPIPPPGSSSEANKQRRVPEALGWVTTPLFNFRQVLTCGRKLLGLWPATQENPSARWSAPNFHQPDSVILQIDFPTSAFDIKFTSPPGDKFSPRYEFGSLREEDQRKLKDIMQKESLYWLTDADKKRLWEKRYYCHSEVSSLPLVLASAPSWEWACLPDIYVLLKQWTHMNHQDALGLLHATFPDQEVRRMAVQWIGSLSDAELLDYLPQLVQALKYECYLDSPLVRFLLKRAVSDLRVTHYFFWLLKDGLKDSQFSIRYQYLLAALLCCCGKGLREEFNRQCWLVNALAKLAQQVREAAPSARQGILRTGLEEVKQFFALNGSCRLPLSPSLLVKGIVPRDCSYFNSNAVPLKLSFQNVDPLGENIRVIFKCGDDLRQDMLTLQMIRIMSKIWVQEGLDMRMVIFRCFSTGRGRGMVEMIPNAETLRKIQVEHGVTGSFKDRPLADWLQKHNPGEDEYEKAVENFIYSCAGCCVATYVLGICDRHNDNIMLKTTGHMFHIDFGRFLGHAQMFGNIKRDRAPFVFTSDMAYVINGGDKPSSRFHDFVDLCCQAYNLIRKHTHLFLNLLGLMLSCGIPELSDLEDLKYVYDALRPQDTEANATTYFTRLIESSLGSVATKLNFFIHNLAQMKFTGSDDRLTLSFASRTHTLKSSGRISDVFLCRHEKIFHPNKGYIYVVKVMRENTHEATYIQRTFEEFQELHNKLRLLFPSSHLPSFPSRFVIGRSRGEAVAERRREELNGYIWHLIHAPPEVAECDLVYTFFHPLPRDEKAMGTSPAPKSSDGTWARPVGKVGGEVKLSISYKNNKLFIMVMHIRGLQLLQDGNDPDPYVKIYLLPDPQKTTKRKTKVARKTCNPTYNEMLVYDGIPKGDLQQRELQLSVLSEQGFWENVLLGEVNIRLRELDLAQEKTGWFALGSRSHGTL
T4 sequence (P45983 whole entry): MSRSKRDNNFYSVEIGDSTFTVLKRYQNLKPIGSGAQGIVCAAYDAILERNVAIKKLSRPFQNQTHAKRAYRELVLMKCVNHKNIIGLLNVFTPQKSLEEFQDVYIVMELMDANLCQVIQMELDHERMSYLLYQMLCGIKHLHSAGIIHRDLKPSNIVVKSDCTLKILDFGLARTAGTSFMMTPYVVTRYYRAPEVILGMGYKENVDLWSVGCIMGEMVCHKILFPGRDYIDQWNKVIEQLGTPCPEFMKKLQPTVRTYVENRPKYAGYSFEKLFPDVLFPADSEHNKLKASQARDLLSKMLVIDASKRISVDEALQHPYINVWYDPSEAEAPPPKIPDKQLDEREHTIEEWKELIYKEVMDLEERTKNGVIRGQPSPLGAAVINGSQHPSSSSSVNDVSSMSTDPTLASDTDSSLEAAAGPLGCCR
Chain of PLK3 (Q9H4B4 whole entry): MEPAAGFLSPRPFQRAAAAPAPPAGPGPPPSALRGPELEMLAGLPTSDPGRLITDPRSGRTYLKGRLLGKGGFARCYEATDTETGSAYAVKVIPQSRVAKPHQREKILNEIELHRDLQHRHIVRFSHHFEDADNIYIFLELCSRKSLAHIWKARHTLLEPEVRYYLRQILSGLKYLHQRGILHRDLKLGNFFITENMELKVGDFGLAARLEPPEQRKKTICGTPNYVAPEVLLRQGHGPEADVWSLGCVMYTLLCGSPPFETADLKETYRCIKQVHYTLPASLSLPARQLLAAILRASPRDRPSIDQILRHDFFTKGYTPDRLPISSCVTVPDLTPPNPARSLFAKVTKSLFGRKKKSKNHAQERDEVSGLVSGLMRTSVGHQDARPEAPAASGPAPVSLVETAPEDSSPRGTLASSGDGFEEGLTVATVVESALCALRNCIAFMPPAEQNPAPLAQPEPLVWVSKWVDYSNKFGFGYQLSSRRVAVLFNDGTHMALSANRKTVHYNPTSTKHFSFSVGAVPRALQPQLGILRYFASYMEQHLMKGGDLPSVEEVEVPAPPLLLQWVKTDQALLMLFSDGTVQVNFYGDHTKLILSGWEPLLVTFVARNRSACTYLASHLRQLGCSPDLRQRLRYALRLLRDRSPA

Compound: [O-][S@@+](Cc1cncs1)C(c1ccccc1)c1ccccc1 [S-CE-123, (S)-5-((Benzhydrylsulfinyl)Methyl)Thiazole]
- remaining binding at 2.8 µM (ADCK4): 96%
- remaining binding at 2.8 µM (BTK): 100%
- remaining binding at 2.8 µM (CDC2L2): 98%
- remaining binding at 2.8 µM (CSNK1D): 100%
- remaining binding at 2.8 µM (DYRK2): 86%
- remaining binding at 2.8 µM (EPHA3): 97%
- remaining binding at 2.8 µM (ERBB3): 89%
- remaining binding at 2.8 µM (HPK1): 89%
- remaining binding at 2.8 µM (JNK1): 67%
- remaining binding at 2.8 µM (KIT(V559D,T670I)): 83%
- remaining binding at 2.8 µM (LZK): 94%
- remaining binding at 2.8 µM (MEK3): 86%
- remaining binding at 2.8 µM (MEK6): 89%
- remaining binding at 2.8 µM (MELK): 67%
- remaining binding at 2.8 µM (MERTK): 63%
- remaining binding at 2.8 µM (MKNK2): 69%
- remaining binding at 2.8 µM (MUSK): 100%
- remaining binding at 2.8 µM (PIK3C2B): 98%
- remaining binding at 2.8 µM (PIK3CA(E542K)): 88%
- remaining binding at 2.8 µM (PIK3CA(M1043I)): 63%
- remaining binding at 2.8 µM (PIM2): 100%
- remaining binding at 2.8 µM (PLK3): 95%
- remaining binding at 2.8 µM (PRKCD): 89%
- remaining binding at 2.8 µM (ROCK1): 100%
- remaining binding at 2.8 µM [1]: 100%
- remaining binding at 2.8 µM (TAOK3): 91%
